Assay results from patent US11098060B2, “Macrocycle containing aminopyrazole and pyrimidine and pharmaceutical composition and use thereof” (CHIA TAI TIANQING PHARMACEUTICAL GROUP CO., LTD., priority 2017, dated 2021).

Key:
[1] = molecular target: TrkA^G595R (Kinase domain) kinase (Homo sapiens (Human), UniProt P04629, G595R); assay: Assay for inhibitory activity (IC50) against TrkA^G595R kinase (HTRF); assay type: biochemical; conditions: kinase 0.2 nM, TK peptide 1 μM, 120 min at 23° C.
TrkA^WT kinase = TrkA^WT kinase (Homo sapiens (Human), UniProt P04629); assay: Assay for inhibitory activity (IC50) against TrkA^WT (HTRF); assay type: biochemical; conditions: TrkA 1 nM, ATP 40 μM, TK peptide 1 μM, 60 min at 23° C.
Sequence of TrkA^WT kinase (P04629 33-796): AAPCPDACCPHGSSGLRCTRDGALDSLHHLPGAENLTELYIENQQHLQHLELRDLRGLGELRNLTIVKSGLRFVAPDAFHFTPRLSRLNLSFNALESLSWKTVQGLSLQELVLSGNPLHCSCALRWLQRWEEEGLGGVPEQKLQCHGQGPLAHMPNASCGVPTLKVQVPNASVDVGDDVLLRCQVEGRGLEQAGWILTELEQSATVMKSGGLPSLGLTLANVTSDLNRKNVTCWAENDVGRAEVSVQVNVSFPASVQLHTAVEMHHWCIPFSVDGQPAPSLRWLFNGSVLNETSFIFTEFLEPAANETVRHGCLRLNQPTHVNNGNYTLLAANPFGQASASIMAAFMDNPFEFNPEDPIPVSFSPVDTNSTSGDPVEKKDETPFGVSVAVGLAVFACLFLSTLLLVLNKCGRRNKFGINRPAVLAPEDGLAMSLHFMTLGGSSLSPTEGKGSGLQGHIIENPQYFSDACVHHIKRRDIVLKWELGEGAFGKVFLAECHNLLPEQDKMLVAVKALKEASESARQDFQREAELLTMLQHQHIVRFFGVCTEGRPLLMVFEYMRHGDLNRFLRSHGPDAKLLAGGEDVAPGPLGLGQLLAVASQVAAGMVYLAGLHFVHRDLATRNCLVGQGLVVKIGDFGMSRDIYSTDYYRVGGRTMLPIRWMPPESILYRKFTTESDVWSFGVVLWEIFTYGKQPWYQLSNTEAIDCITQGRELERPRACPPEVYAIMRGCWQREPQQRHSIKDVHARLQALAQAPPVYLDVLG

Sequence of TrkA^G595R (Kinase domain) kinase (P04629 510-781 G595R): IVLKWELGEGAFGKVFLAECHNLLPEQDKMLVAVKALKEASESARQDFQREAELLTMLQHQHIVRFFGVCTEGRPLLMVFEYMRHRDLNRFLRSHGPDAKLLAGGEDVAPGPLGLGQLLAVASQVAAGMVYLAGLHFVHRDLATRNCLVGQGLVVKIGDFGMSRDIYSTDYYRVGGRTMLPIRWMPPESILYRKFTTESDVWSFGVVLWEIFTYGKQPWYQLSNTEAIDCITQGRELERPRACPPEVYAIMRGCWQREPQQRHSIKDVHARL

| Compound | IC50 [1] [nM] | IC50 (TrkA^WT kinase) [nM] |
| --- | --- | --- |
| C[C@@H]1CCc2ncc(F)cc2[C@H]2CCCN2c2ccn3nc(N)c(c3n2)C(=O)N1 [Example 28, (1^3E,1^4E,2^2R,6R)-1^2-amino-3^5-fluoro-6-methyl-7-aza-1(5,3)-pyrazolo[1,5-a]pyrimidine 3(3,2)-pyridine-2(1,2) pyrrolidylcyclooctanephane-8-one] | 1.01 ± 0.36 | 0.31 ± 0.03 |
| Nc1nn2ccc3nc2c1C(=O)NCCCn1cc(F)cc(c1=O)[C@H]1CCCN31 [Example 22, (1^3E,1^4E,2^2R)-1^2-Amino-3^5-fluoro-3^1,3^2-dihydro-7-aza-1(5,3)-pyrazolo[1,5-a]pyrimidine-3(3,1)-pyridine-2(1,2)-pyrrolidylcyclooctanephane-3^2,8-dione] |  | 0.57 ± 0.03 |
| Nc1nn2ccc3nc2c1C(=O)NCCCCc1cccc(n1)C1CCCN31 (stereo not drawn) [Example 3, (1^3E,1^4E)-1^2-amino-4-oxa-8-aza-1(5,3)-pyrazolo[1,5-a]pyrimidine-3(2,6)-pyridine-2 (1,2)-pyrrolidylcyclononanephane-9-one] |  | 0.84 ± 0.12 |
| Nc1nn2ccc3nc2c1C(=O)NCCCc1ncc(F)cc1[C@H]1C[C@H](F)CN31 [Example 27, (1^3E,1^4E,2^2R,2^4S)-1^2-amino-2^4,3^5-difluoro-7-aza-1(5,3)-pyrazolo[1,5-a]pyrimidine-3(3,2)-pyridine-2(1,2)-pyrrolidylcyclooctanephane-8-one] | 0.68 ± 0.26 | 0.21 ± 0.03 |
| Nc1nn2ccc3nc2c1C(=O)NCCCOc1ncc(F)cc1C1C[C@@H](F)CN31 (stereo partly drawn) [Example 13, (1^3E,1^4E, 2^2R,2^4R)-1^2-amino-2^4,3^5-difluoro-4-oxa-8-aza-1(5,3)-pyrazolo[1,5-a]pyrimidine-3(3,2)-pyridine-2 (1,2)-pyrrolidylcyclononanephane-9-one] |  | 0.64 ± 0.02 |
| Nc1nn2ccc3nc2c1C(=O)NCCCOc1ncc(F)cc1C1CCCN31 (stereo not drawn) [Example 2] |  | 0.57 ± 0.1 |
| Nc1nn2ccc3nc2c1C(=O)NCCOc1ccc(F)cc1[C@@H]1CCCN31 [Example 20, (S,1^3E,1^4E)-1^2-amino-3^5-fluoro-4-oxa-7-aza-1(5,3)-pyrazolo [1,5-a]pyrimidine-2(1,2)-pyrrolidine-3(1,2)-benzocyclooctanephane-8-one] |  | 3.8 ± 0.21 |
| Nc1nn2ccc3nc2c1C(=O)NCCCOc1ccc(F)cc1[C@H]1CCCN31 [Example 10, (R,1^3E,1^4E)-1^2-amino-3^5-fluro-4-oxa-8-aza-1(5,3)-pyrazolo[1,5-a]pyrimidine-2(1,2)-pyrrolidine-3(1,2)-benzocyclononanephane-9-one] | 1.92 ± 0.1 | 0.8 ± 0.21 |
| Nc1nn2ccc3nc2c1C(=O)NCCOc1ncccc1[C@H]1CCCN31 [Example 5, (R,1^3E,1^4E)-1^2-amino-4-oxa-7-aza-1(5,3)-pyrazolo[1,5-a]pyrimidine-3(3,2)-pyridine-2 (1,2)-pyrrolidylcyclooctanephane-8-one] |  | 0.37 ± 0.04 |
| CC1(C)CNC(=O)c2c(N)nn3ccc(nc23)N2C[C@@H](F)CC2c2cc(F)cnc2OC1 (stereo partly drawn) [Example 18, (1^3E,1^4E,2^2R,2^4S)-1^2-amino-2^4,3^5-difluoro-6,6-dimethyl-4-oxa-8-aza-1(5,3)-pyrazolo [1,5-a]pyrimidine-3(3,2)-pyridine-2(1,2)-pyrrolidylcyclononanephane-9-one] | 1.24 ± 0.15 |  |
| Nc1nn2ccc3nc2c1C(=O)NCCCn1cc(F)cc(c1=O)C1CCCN31 (stereo not drawn) [Example 24, (1^3E,1^4E)-1^2-amino-3^5-fluoro-3^1,3^2-dihydro-7-aza-1(5,3)-pyrazolo[1,5-a]pyrimidine-3(3,1)-pyridine-2(1,2)-pyrrolidylcyclooctanephane-3^2,8-dione] |  | 0.85 ± 0.07 |
| Nc1nn2ccc3nc2c1C(=O)NCCCOc1ncccc1[C@H]1CCCN31 [Example 6, (R,1^3E,1^4E)-1^2-amino-4-oxa-8-aza-1(5,3)-pyrazolo[1,5-a]pyrimidine-3(3,2)-pyridine-2 (1,2)-pyrrolidylcyclononanephane-9-one] |  | 0.47 ± 0.26 |
| C[C@H]1CNC(=O)c2c(N)nn3ccc(nc23)N2CCC[C@@H]2c2cc(F)ccc2O1 [Example 32, (1^3E,1^4E,2^2R,5S)-1^2-amino-3^5-fluoro-5-methyl-4-oxa-7-aza-1(5,3)-pyrazolo[1,5-a]pyrimidine-(1,2)-pyrrolidine-3(1,2)-benzocyclooctanephane-8-one] | 1.28 ± 0.05 |  |
| Nc1nn2ccc3nc2c1C(=O)NCCOc1ncc(F)cc1[C@H]1C[C@@H](O)CN31 [Example 9, (1^3E,1^4E,2^2R,2^4R)-1^2-amino-3^5fluoro-2^4-hydroxy-4-oxa-7-aza-1(5,3)-pyrazolo[1,5-a] pyrimidine-3(3,2)-pyridine-2(1,2)-pyrrolidylcyclooctanephane-8-one] | 0.84 ± 0.14 | 0.44 ± 0.12 |
| (1^3E,1^4E,2^2R,2^4S)-1^2-Amino-2^4,3^5-difluoro-4-oxa-8-aza-1(5,3)-pyrazolo[1,5-a]pyrimidin-3(3,2)-pyridine-2(1,2)-pyrrolidylcyclononanephane-9-one [Example 12] | 0.34 ± 0.04 | 0.72 ± 0.04 |
| C[C@H]1CCc2ncc(F)cc2[C@H]2C[C@H](F)CN2c2ccn3nc(N)c(c3n2)C(=O)N1 [Example 29, (1^3E,1^4E,2^2R,24S,6S)-1^2-amino-2^4,3^5-difluoro-6-methyl-7-aza-1(5,3)-pyrazolo[1,5-a]pyrimidine-3(3,2)-pyridine-2(1,2) pyrrolidylcyclooctanephane-8-one] | 1.08 ± 0.24 | 0.25 ± 0.02 |
| CN1CCCOc2ncc(F)cc2[C@H]2C[C@H](F)CN2c2ccn3nc(N)c(c3n2)C1=O [Example 17, (1^3E,1^4E,2^2R,2^4S)-1^2-amino-2^4,3^5-difluoro-8-methyl-4-oxa-8-aza-1(5,3) -pyrazolo[1,5-a] pyrimidine-3(3,2)-pyridine-2(1,2)-pyrrolidylcyclononanephane-9-one] | 1.05 ± 0.16 | 0.61 ± 0.06 |
| Nc1nn2ccc3nc2c1C(=O)NCCOc1ccc(F)cc1[C@H]1CCCN31 [Example 8, (R,1^3E,1^4E)-1^2-amino-3^5-fluro-4-oxa-7-aza-1(5,3)-pyrazolo[1,5-a]pyrimidine-2(1,2)-pyrrolidine-3(1,2)-benzocyclooctanephane-8-one] | 2.08 ± 0.45 | 0.41 ± 0.04 |
| Nc1nn2ccc3nc2c1C(=O)NCCCCc1ncc(F)cc1[C@H]1C[C@H](F)CN31 [Example 31, (1^3E,1^4E,2^2R,2^4S)-1^2-amino-2^4,3^5-difluoro-8-aza-1(5,3)-pyrazolo[1,5-a]pyrimidine-3(3,2)-pyridine-2(1,2)-pyrrolidylcyclononanephane-9-one] | 1.45 ± 0.11 |  |
| C[C@@H]1COc2ncc(F)cc2[C@H]2C[C@H](F)CN2c2ccn3nc(N)c(c3n2)C(=O)N1 [Example 19, (1^3E,1^4E,2^2R,2^4S,6R)-1^2-amino-2^4, 3^5-difluoro-6-methyl-4-oxa-7-aza-1(5,3)-pyrazolo[1,5-a] pyrimidine-3(3,2)-pyridine-2(1,2)-pyrrolidylcyclooctanephane-8-one] | 0.73 ± 0.07 |  |
| Nc1nn2ccc3nc2c1C(=O)NCCOc1ncccc1C1CCCN31 (stereo not drawn) [Example 11, (1^3E, 1^4E)-1^2-amino-4-oxa-7-aza-1(5,3)-pyrazolo[1,5-a]pyrimidine-3(3,2)-pyridine-2 (1,2)-pyrrolidylcyclooctanephane-8-one] |  | 1.04 ± 0.34 |
| Nc1nn2ccc3nc2c1C(=O)NCC(F)(F)COc1ncc(F)cc1[C@H]1C[C@H](F)CN31 [Example 35, (1^3E,1^4E,2^2R,2^4S)-1^2-amino-2^4,3^5,6,6-tetrafluoro-4-oxa-8-aza-1(5,3)-pyrazol[1,5-a]pyrimidine-3(3,2)-pyridine-2(1,2)-pyrrolidylcyclononanephane-9-one] | 1.36 ± 0.02 |  |
